Data published in ChEMBL document CHEMBL1201862, “PubChem BioAssay data set” (2004).
Where a name gives a salt, the structure may show the parent alone. Activity calls are given as the source filed them.

What was measured:
[1] = target: T1, Polyadenylate-binding protein 1 (Homo sapiens, UniProt P11940); experiment: PABP1 MLLE–PAM2 interaction inhibitors, dose response, miRNA deadenylation inhibitor project, biochemical, fluorescence polarization, Cy5-PAM2 peptide, secondary (AID 602260); assay type: functional; details: read-out: IC50_Mean
T1 sequence (P11940 whole entry): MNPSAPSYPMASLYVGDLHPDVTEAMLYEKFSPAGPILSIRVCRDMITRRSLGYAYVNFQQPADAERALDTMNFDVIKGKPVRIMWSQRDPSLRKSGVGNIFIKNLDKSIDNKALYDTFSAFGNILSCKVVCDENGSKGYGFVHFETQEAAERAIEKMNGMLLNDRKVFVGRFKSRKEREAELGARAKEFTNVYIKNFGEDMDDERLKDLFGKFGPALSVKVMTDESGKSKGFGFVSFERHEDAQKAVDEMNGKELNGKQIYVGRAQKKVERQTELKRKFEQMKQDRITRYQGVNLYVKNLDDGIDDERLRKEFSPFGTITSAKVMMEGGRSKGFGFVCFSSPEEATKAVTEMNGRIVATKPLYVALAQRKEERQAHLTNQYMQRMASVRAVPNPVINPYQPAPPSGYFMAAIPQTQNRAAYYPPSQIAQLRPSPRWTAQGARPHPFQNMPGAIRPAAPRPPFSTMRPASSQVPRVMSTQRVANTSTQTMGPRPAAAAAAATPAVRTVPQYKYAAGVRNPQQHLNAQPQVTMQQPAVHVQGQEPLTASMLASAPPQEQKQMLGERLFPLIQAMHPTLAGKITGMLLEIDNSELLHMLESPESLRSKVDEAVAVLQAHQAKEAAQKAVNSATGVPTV

[2] = target: T1, Polyadenylate-binding protein 1; experiment: PABP1 MLLE–PAM2 binding inhibitor potency, dose response, biochemical, fluorescence polarization, FITC-PAM2 peptide (AID 602259); assay type: functional; details: read-out: IC50_Mean
Genome polyprotein = Genome polyprotein (dengue virus type 2, UniProt P29990); experiment: Dengue-2 NS5 methyltransferase inhibitors, primary screen, biochemical, confirmation dose response (AID 588689); assay type: functional
Chain of Genome polyprotein (P29990 2492-3391 limits assumed): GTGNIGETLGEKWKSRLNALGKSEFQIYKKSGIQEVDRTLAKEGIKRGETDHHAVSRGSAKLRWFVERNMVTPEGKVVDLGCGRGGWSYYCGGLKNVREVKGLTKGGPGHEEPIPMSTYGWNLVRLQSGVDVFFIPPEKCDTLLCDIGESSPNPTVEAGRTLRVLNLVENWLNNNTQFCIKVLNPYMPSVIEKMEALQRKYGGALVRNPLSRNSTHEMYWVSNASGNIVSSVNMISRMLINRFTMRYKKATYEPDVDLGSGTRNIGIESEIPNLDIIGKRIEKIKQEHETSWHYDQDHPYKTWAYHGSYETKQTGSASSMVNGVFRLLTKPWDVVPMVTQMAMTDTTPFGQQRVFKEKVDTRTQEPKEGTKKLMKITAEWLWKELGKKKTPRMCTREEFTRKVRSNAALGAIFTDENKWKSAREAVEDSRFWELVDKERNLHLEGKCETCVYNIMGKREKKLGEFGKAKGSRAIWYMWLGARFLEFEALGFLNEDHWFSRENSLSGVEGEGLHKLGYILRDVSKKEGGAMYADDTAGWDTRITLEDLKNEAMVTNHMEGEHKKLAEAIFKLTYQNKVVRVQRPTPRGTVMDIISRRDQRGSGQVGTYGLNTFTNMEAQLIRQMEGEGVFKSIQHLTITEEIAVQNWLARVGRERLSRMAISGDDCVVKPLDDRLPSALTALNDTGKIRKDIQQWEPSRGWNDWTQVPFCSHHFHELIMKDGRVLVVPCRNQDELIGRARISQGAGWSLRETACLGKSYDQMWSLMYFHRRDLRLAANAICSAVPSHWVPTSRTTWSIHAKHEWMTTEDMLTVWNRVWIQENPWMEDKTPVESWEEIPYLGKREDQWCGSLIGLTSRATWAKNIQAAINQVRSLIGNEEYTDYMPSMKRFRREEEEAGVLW

Protein skinhead-1 = target: T2, Protein skinhead-1 (Caenorhabditis elegans, UniProt P34707); assay type: functional
T2 sequence (P34707 whole entry): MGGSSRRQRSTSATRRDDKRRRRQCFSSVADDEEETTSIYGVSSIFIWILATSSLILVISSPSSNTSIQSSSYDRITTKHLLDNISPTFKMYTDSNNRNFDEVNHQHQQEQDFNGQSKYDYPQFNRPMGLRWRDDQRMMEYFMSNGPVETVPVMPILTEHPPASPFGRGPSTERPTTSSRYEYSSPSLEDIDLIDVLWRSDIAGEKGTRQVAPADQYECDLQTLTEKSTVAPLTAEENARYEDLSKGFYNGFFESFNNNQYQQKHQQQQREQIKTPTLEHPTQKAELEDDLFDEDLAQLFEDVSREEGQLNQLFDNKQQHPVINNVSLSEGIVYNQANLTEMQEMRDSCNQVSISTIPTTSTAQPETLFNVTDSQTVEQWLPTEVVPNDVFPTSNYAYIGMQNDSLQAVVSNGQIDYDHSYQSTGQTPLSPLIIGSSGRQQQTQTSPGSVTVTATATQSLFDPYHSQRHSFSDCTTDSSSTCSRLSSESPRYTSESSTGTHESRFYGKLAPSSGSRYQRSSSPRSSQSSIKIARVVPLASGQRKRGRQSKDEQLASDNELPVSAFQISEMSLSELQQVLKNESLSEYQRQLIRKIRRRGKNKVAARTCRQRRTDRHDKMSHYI

Cytochrome P450 2C19 = Cytochrome P450 2C19 (Homo sapiens, UniProt P33261); experiment: Cytochrome panel assay with activity outcomes. Panel member name: p450-cyp2c19 Compounds with AC50 equal or less than 10 uM are considered active; assay type: functional
Chain of Cytochrome P450 2C19 (P33261 whole entry): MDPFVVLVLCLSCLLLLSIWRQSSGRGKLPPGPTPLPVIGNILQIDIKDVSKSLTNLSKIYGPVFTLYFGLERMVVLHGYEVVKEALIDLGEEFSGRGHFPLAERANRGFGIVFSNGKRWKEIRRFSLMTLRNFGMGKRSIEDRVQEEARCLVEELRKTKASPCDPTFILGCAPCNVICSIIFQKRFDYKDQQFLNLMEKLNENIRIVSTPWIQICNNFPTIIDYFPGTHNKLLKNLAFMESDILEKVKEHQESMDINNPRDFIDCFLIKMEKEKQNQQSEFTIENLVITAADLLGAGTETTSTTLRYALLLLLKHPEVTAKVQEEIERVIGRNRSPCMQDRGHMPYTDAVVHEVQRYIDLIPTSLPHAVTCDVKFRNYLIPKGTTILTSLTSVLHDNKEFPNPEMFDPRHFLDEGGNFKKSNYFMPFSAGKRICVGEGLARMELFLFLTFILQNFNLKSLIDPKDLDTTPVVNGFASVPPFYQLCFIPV

Cytochrome P450 3A4 = Cytochrome P450 3A4 (Homo sapiens, UniProt P08684);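 further: CYP3A4 tested as one member of a cytochrome P450 panel screen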
Chain of Cytochrome P450 3A4 (P08684 whole entry): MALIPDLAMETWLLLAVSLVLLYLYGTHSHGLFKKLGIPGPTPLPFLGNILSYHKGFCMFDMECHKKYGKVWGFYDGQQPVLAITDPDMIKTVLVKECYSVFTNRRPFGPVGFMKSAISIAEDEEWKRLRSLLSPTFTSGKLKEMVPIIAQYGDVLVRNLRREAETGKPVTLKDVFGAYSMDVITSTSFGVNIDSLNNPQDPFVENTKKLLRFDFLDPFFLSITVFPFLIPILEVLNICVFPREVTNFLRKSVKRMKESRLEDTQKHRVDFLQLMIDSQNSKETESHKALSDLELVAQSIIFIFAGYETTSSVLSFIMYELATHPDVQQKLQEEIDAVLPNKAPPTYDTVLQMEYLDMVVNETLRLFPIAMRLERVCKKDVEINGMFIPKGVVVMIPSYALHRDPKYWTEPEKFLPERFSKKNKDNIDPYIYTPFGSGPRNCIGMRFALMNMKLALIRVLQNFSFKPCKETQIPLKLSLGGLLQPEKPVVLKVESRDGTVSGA

[3] = target: FAD-linked sulfhydryl oxidase ALR (Homo sapiens, UniProt P55789); experiment: inhibitors of human ALR sulfhydryl oxidase, dose response, biochemical, H2O2 detection, luminescence, cherry-pick (AID 493248)
Chain of FAD-linked sulfhydryl oxidase ALR (P55789 whole entry): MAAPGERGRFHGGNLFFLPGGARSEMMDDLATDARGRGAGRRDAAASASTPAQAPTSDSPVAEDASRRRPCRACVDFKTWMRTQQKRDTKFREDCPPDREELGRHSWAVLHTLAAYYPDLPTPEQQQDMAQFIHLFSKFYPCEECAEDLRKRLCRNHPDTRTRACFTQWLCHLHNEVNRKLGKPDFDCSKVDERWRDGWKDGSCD

[4] = Shn3 3'UTR reporter inhibitors, dose response, cell-based, Clone20 osteoblasts, firefly luciferase, cherry-picked (AID 624132); assay type: functional;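 further: firefly luciferase luminescence from reporter carrying the Shn3 3'UTR in osteoblasts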
[5] = HepG2 cell cytotoxicity, dose response, cytotoxicity control for Shn3 inhibitor project, CellTiter-Glo, cherry-picked (AID 624134); assay type: functional, cell-based
[6] = control 3'UTR Renilla luciferase suppression, dose response, counter-screen for Shn3 inhibitor project, cell-based, Clone20-Shn3RL, cherry-picked (AID 624133); assay type: functional
[7] = target: T3, Corticotropin-releasing factor receptor 2/Corticotropin-releasing factor-binding protein (Homo sapiens, UniProt P24387+Q13324); experiment: activators of CRF receptor 2 with binding protein – uHTS hits, confirmation (AID 602473); assay type: functional; details: read-out: EC50_Mean
T3 sequence (Q13324 whole entry): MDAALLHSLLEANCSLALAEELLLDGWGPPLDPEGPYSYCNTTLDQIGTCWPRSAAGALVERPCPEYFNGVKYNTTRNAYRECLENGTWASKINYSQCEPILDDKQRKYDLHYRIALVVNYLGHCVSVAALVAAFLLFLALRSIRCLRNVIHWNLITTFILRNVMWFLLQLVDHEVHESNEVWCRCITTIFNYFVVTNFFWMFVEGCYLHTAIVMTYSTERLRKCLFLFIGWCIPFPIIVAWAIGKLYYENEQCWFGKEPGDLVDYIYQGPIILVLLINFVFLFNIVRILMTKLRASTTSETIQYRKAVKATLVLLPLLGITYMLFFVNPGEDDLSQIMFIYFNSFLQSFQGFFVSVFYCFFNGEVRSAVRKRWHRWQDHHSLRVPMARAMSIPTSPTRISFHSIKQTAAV
T3 sequence (P24387 whole entry): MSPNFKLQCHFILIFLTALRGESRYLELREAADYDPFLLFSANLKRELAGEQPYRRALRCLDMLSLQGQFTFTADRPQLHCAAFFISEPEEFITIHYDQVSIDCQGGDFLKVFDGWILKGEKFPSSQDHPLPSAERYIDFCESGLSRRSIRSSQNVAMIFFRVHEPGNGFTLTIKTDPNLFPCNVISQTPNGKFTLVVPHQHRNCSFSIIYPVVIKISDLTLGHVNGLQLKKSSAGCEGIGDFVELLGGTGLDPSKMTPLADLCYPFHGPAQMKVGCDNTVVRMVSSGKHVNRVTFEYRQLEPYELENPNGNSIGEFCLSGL

Cytochrome P450 1A2 = target: T4, Cytochrome P450 1A2 (Homo sapiens, UniProt P05177);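 further: PubChem cytochrome P450 panel assay, CYP1A2 panel member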
T4 sequence (P05177 whole entry): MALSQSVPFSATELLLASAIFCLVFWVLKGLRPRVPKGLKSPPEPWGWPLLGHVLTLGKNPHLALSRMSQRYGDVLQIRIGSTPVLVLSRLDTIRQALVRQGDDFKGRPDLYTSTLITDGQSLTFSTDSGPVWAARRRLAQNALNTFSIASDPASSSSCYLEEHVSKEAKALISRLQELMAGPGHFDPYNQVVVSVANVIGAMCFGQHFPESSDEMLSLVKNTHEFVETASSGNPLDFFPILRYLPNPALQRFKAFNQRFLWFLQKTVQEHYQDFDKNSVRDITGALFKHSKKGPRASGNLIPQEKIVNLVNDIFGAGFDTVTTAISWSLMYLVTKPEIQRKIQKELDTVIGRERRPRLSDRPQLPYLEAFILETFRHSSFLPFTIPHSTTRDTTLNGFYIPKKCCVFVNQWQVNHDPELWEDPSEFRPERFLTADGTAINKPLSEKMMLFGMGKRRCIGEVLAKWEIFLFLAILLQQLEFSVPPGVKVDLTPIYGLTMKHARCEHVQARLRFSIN

Cytochrome P450 2C9 = Cytochrome P450 2C9 (Homo sapiens, UniProt P11712)
Chain of Cytochrome P450 2C9 (P11712 whole entry): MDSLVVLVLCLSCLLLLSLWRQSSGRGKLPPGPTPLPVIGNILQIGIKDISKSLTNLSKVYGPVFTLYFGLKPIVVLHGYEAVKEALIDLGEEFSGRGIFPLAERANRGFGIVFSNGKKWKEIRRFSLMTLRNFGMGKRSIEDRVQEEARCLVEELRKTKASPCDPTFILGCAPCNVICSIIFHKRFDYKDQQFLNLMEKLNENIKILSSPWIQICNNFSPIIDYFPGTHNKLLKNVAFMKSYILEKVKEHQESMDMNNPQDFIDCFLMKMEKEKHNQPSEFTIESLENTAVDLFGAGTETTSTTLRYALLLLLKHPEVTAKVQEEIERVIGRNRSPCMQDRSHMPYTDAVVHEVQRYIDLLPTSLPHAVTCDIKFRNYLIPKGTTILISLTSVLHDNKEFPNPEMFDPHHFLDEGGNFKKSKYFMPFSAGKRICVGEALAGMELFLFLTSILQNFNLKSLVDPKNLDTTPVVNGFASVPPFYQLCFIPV

With `CCOC(=O)c1c(NC(=O)c2ccccc2)sc2c1CCc1ccccc1-2` the IC50 [1] was > 66 µM (inactive) and the IC50 [2] was > 66 µM (inactive).

In the case of `O=C1NC(=O)C(=Cc2cccc(OCCOc3ccccc3)c2)C(=O)N1`, the IC50 (Genome polyprotein) is reported as 51.2 µM (active).

With `CCOC(=O)C1CCCN(C(=O)c2ccc(-c3ccc([N+](=O)[O-])cc3)o2)C1` (centres undefined) the IC50 [1] was > 66 µM (inactive) and the IC50 [2] was > 66 µM (inactive).

In the case of `Cc1cc2cc(CN=C(S)Nc3ccc(OC(F)F)cc3)ccc2n1C`, the IC50 [1] is reported as > 66 µM (inactive), the IC50 [2] is reported as > 66 µM (inactive) and the IC50 (Protein skinhead-1) is reported as > 100 µM (inactive).

With `NC(=O)c1ccc(N2CCCCC2)c(N2C(=O)C3CC=CCC3C2=O)c1` (centres undefined) the AC50 (Cytochrome P450 2C19; read-out: AC50) was 39.8 µM (inconclusive) and the AC50 (Cytochrome P450 3A4) was 25.1 µM (inconclusive).

In the case of `O=C(NC1CCCCCC1)C1CCCN1S(=O)(=O)c1cccc2cccnc12` (centres undefined), the AC50 [3] is reported as 10.7 µM (active).

For `COc1ccccc1CNC(=O)CSC1=NCCS1`, the IC50 [1] was > 66 µM (inactive) and the IC50 [2] was > 66 µM (inactive).

With `O=c1[nH]c2cc(Cl)c(Br)cc2o1` [BROMCHLORENONE] the IC50 (Protein skinhead-1) was > 100 µM (inactive).

With `CCNc1ccc(C(=O)O)cc1N` the AC50 [3] was 1.41 µM (active).

For `CN(C)Cc1ccc(C(C)(C)C)cc1-c1cc(C(C)(C)C)ccc1CN(C)C`, the AC50 (Cytochrome P450 2C19) was “inconclusive”.

In the case of `Cc1cc(C)c(S(=O)(=O)N2Cc3ccccc3-n3nncc3C2)c(C)c1`, the AC50 [4] is reported as 4.36 µM (active), the AC50 [5] is reported as 49.7 µM (active) and the AC50 [6] is reported as 5.53 µM (active).

In the case of `CN(C)CCCO[C@@H]1[C@H]2OC(C)(C)O[C@H]2O[C@@H]1[C@H](O)CO` [AMIPRILOSE HYDROCHLORIDE], the IC50 (Protein skinhead-1) is reported as > 100 µM (inactive).

For `CC(=O)Oc1oc(-c2ccccc2)nc1/C=N/c1ccccc1`, the IC50 (Genome polyprotein) was 86.3 µM (active) and the EC50 [7] was 22.3 µM (active).

In the case of `COC(=O)N1CCC2(CCCN(C(c3ccccc3)c3ccccc3)C2)CC1`, the AC50 (Cytochrome P450 2C19; read-out: AC50) is reported as 25.1 µM (inconclusive) and the AC50 (Cytochrome P450 1A2) is reported as 15.8 µM (inconclusive).

With `CCOP(=O)(CN(CC)CCNP(=O)(OCC)OCC)OCC` the AC50 (Cytochrome P450 2C9) was 0.126 µM (inconclusive) and the AC50 (Cytochrome P450 2C19; read-out: AC50) was 39.8 µM (inconclusive).

For `O=C(CSC1=Nc2ccccc2C2=NC(CC(=O)NC3CCCCC3)C(=O)N12)NCc1ccco1` (centres undefined), the IC50 [1] was > 66 µM (inactive) and the IC50 [2] was 31.2 µM (inactive).

With `O=C(CN1C2CCC1CC(NC(=O)C1CC1)C2)NCc1ccccc1` (centres undefined) the IC50 (Protein skinhead-1) was > 100 µM (inactive).
